# Peptide text beside a SMILES is read from it.
# Key:
# [1] = system: HT-22 neuronal cell line; test: Viability of HT-22 neuronal cell line without damaging factors (MTT test); format: cell-based, mouse; settings: FIG. 1.1, different molar concentrations
# Experimental: The rat adrenal […] pheochromocytoma cell line PC12 was obtained from the Cell Culture Museum, RAN Institute of Molecular Genetics. The immortalized mouse hippocampal cell line HT-22 was a gift from Prof. F. Viegant, Utrecht University, the Netherlands.
# The cells were grown in DMEM medium containing 5% FBS and 2 mM L-glutamine. The cells were incubated at 37° C. and 5% CO2. The growth medium was changed at 24 hours after inoculation and every 3 days thereafter. The cells were re-plated every week into culture flasks with a total area of 75 cm^2.
# All types of cells were plated in DMEM medium.
# [2] = system: HT-22 cells; test: Oxidative stress (H2O2) model in cultured HT-22 cells (MTT test); format: cell-based, mouse; settings: added 24 hours prior to the stress exposure, 10^−8 M to 10^−5 M
# Experimental: To induce an oxidative stress, the cells were placed in a growth medium containing 5% FBS, then a freshly prepared H2O2 solution was added to a final concentration of 1.5 mM and incubated for 30 min at 37° C. and 5% CO2. Thereafter, the medium was replaced with a new one and the cells were cultured for 4 h under the same conditions.
# The determination of cell viability was carried out by MTT test. […] At the end of an experiment the growth medium was replaced with an MTT solution (0.5 mg/ml) and incubated for 30 min at 37° C. and 5% CO2. The MTT solution was then removed from the wells and DMSO was added to dissolve the formazan precipitate. Then the optical density was measured using a Multiscan (Thermo) spectrophotometer at a wavelength of 600 nm.
# [3] = system: HT-22 cells; settings: added 24 hours prior to glutamate
# Experimental: The determination of cell viability was carried out by MTT test. MTT is a water soluble tetrazolium salt of yellow color which readily permeates cells. In living cells, MTT is converted into water insoluble formazan crystals of violet color. At the end of an experiment the growth medium was replaced with an MTT solution (0.5 mg/ml) and incubated for 30 min at 37° C. and 5% CO2. The MTT solution was then removed from the wells and DMSO was added to dissolve the formazan precipitate. Then the optical density was measured using a Multiscan (Thermo) spectrophotometer at a wavelength of 600 nm.
# [4] = system: Balb/c mice; test: Behavioral despair test according to Porsolt; format: in vivo, mouse
# Experimental: In order to detect a potential antidepressant activity of the peptide BDNF mimetics, the behavioral despair test was used in the original version (Porsolt R. D., Anton G., Blavet N., Jalfre M. Behavioral despair in rats: a new model sensitive to antidepressants. European Journal of Pharmacology, 1978, 47, 379-391).
# For these experiments, male Balb/c mice weighing 20-22 g were used. On day 1, the animals were placed in a narrow vessel filled with water at 22° C. for 10 min. 60 min later a test compound was administered intraperitoneally (GSB-106 at 1 mg/kg, GBK-108 and GBK-201 at 0.01, 0.1, 1.0, 10.0 mg/kg). 24 hours later the animals were placed again in the same conditions to record the retention time of the characteristic immobile posture (abandoning any active defensive and exploratory behavior) for a 5 min test period. Imipramine was administered 60 min prior to the 5 min test period (on day 2). The control groups were treated with distilled water. Each experimental group comprised at least 6 mice.
smiles,measurement,setting,value
"NCCCC[C@H](NC(=O)[C@H](CCC(=O)O)NC(=O)CCC(=O)O)C(=O)NCCCCNC(=O)[C@H](CCCCN)NC(=O)[C@H](CCC(=O)O)NC(=O)CCC(=O)O [GK-2c, bis-(N-monosuccinyl-glutamyl-lysine)tetramethylenediamide]",viability of HT-22 cells,[1],reduced the viability
"NCCCC[C@H](NC(=O)[C@H](CO)NC(=O)CCC(=O)O)C(=O)NCCCCCCNC(=O)[C@H](CCCCN)NC(=O)[C@H](CO)NC(=O)CCC(=O)O [GSB-106, bis-(N-monosuccinyl-seryl-lysine) hexamethylenediamide]",neuronal survival under oxidative stress,[2],improved the neuronal survival
same,protective effect against glutamate cytotoxicity,[3],protective effect
same,immobility time,"[4]; GSB-106 1 mg/kg i.p., 24 h before the test",reducing the immobility time
"CC(=O)N[C@@H](CC(=O)O)C(=O)N[C@@H](CO)C(N)=O [GBK-108, N-acetyl-aspartyl-serine amide] (Ac-Asp-Ser-NH2)",neuronal survival under oxidative stress,[2],improved the neuronal survival
same,immobility time,"[4]; GBK-108 at 10 mg/kg i.p., 24 h before the test",increased the immobility time
"CN(C)CCCN1c2ccccc2CCc2ccccc21 [imipramine, Imipramine, reference compound]",immobility time,[4]; imipramine 60 min prior to the 5 min test,reducing the immobility time
